Source: PubChem BioAssay (NCI)
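Cells were grown in 96-well plates and exposed to each compound for 48 hours at five concentrations; endpoints were interpolated linearly between bracketing concentrations, or set to the highest concentration if not reached. TGI denotes the concentration required for complete inhibition of growth.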

Key:
Assay in all cases: NCI-60 cell line screen, 48 h
786-0 renal = test system: 786-0 renal
A498 renal = test system: A498 renal
A549 NSCLC = test system: A549 NSCLC
ACHN renal = test system: ACHN renal
BT-549 breast = test system: BT-549 breast
CAKI-1 renal = test system: CAKI-1 renal
CCRF-CEM leukemia = test system: CCRF-CEM leukemia
COLO 205 colon = test system: COLO 205 colon
DLD-1 colon = test system: DLD-1 colon
DMS 114 small cell lung = test system: DMS 114 small cell lung
DMS 273 small cell lung = test system: DMS 273 small cell lung
DU-145 prostate = test system: DU-145 prostate
EKVX NSCLC = test system: EKVX NSCLC
HCC-2998 colon = test system: HCC-2998 colon
HCT-116 colon = test system: HCT-116 colon
HCT-15 colon = test system: HCT-15 colon
HL-60(TB) leukemia = test system: HL-60(TB) leukemia
HOP-18 NSCLC = test system: HOP-18 NSCLC
HOP-62 NSCLC = test system: HOP-62 NSCLC
HOP-92 NSCLC = test system: HOP-92 NSCLC
HS 578T breast = test system: HS 578T breast
HT29 colon = test system: HT29 colon
IGROV1 ovarian = test system: IGROV1 ovarian
K-562 leukemia = test system: K-562 leukemia
KM12 colon = test system: KM12 colon
KM20L2 colon = test system: KM20L2 colon
LOX IMVI melanoma = test system: LOX IMVI melanoma
LXFL 529 NSCLC = test system: LXFL 529 NSCLC
M14 melanoma = test system: M14 melanoma
M19-MEL melanoma = test system: M19-MEL melanoma
MALME-3M melanoma = test system: MALME-3M melanoma
MCF7 breast = test system: MCF7 breast
MDA-MB-231 breast = test system: MDA-MB-231 breast
MDA-MB-435 = test system: MDA-MB-435
MDA-N = test system: MDA-N
MOLT-4 leukemia = test system: MOLT-4 leukemia
NCI-H226 lung = test system: NCI-H226 lung
NCI-H23 lung = test system: NCI-H23 lung
NCI-H460 lung = test system: NCI-H460 lung
NCI-H522 lung = test system: NCI-H522 lung
NCI/ADR-RES ovarian = test system: NCI/ADR-RES ovarian
OVCAR-3 ovarian = test system: OVCAR-3 ovarian
OVCAR-4 ovarian = test system: OVCAR-4 ovarian
OVCAR-5 ovarian = test system: OVCAR-5 ovarian
OVCAR-8 ovarian = test system: OVCAR-8 ovarian
PC-3 prostate = test system: PC-3 prostate
RPMI-8226 leukemia = test system: RPMI-8226 leukemia
RXF 393 renal = test system: RXF 393 renal
SF-268 CNS = test system: SF-268 CNS
SF-295 CNS = test system: SF-295 CNS
SF-539 CNS = test system: SF-539 CNS
SK-MEL-2 melanoma = test system: SK-MEL-2 melanoma
SK-MEL-28 melanoma = test system: SK-MEL-28 melanoma
SK-MEL-5 melanoma = test system: SK-MEL-5 melanoma
SK-OV-3 ovarian = test system: SK-OV-3 ovarian
SN12C renal = test system: SN12C renal
SNB-19 CNS = test system: SNB-19 CNS
SNB-75 CNS = test system: SNB-75 CNS
SR leukemia = test system: SR leukemia
SW-620 colon = test system: SW-620 colon
TK-10 renal = test system: TK-10 renal
U251 CNS = test system: U251 CNS
UACC-257 melanoma = test system: UACC-257 melanoma
UACC-62 melanoma = test system: UACC-62 melanoma
UO-31 renal = test system: UO-31 renal
XF 498 CNS = test system: XF 498 CNS

SMILES: COc1ccc(-c2nc(N)n(C)c2SSc2c(-c3ccc(OC)cc3)nc(N)n2C)cc1
- TGI (786-0 renal): 29.2 µM
- TGI (A498 renal): 35.7 µM
- TGI (A549 NSCLC): 45.4 µM
- TGI (ACHN renal): 8.3 µM
- TGI (BT-549 breast): 5.54 µM
- TGI (CAKI-1 renal): 24.6 µM
- TGI (CCRF-CEM leukemia): 11.9 µM
- TGI (COLO 205 colon): 4.76 µM
- TGI (DLD-1 colon): 15.3 µM
- TGI (DMS 114 small cell lung): 4.61 µM
- TGI (DMS 273 small cell lung): 13.4 µM
- TGI (DU-145 prostate): 31.4 µM
- TGI (EKVX NSCLC): 44.3 µM
- TGI (HCC-2998 colon): 31.8 µM
- TGI (HCT-116 colon): 7.49 µM
- TGI (HCT-15 colon): 8.73 µM
- TGI (HL-60(TB) leukemia): 14.1 µM
- TGI (HOP-18 NSCLC): 17.8 µM
- TGI (HOP-62 NSCLC): 32.1 µM
- TGI (HOP-92 NSCLC): 6.21 µM
- TGI (HS 578T breast): 29.7 µM
- TGI (HT29 colon): 28.5 µM
- TGI (IGROV1 ovarian): 29.4 µM
- TGI (K-562 leukemia): 15.5 µM
- TGI (KM12 colon): 26.7 µM
- TGI (KM20L2 colon): 30.9 µM
- TGI (LOX IMVI melanoma): 4.22 µM
- TGI (LXFL 529 NSCLC): 3.4 µM
- TGI (M14 melanoma): 4.87 µM
- TGI (M19-MEL melanoma): 4.67 µM
- TGI (MALME-3M melanoma): 22.2 µM
- TGI (MCF7 breast): 23 µM
- TGI (MDA-MB-231 breast): 19.7 µM
- TGI (MDA-MB-435): 13.9 µM
- TGI (MDA-N): 6 µM
- TGI (MOLT-4 leukemia): 5.1 µM
- TGI (NCI-H226 lung): 37.3 µM
- TGI (NCI-H23 lung): 17.8 µM
- TGI (NCI-H460 lung): 42.5 µM
- TGI (NCI-H522 lung): 3.57 µM
- TGI (NCI/ADR-RES ovarian): 35.1 µM
- TGI (OVCAR-3 ovarian): 21.2 µM
- TGI (OVCAR-4 ovarian): 15.9 µM
- TGI (OVCAR-5 ovarian): 14.5 µM
- TGI (OVCAR-8 ovarian): 16.3 µM
- TGI (PC-3 prostate): 18.2 µM
- TGI (RPMI-8226 leukemia): 7.46 µM
- TGI (RXF 393 renal): 6.63 µM
- TGI (SF-268 CNS): 33.7 µM
- TGI (SF-295 CNS): 25.5 µM
- TGI (SF-539 CNS): 13.4 µM
- TGI (SK-MEL-2 melanoma): 29.5 µM
- TGI (SK-MEL-28 melanoma): 10.2 µM
- TGI (SK-MEL-5 melanoma): 4.15 µM
- TGI (SK-OV-3 ovarian): 32.6 µM
- TGI (SN12C renal): 25.5 µM
- TGI (SNB-19 CNS): 27.2 µM
- TGI (SNB-75 CNS): 24.8 µM
- TGI (SR leukemia): 5.48 µM
- TGI (SW-620 colon): 5.09 µM
- TGI (TK-10 renal): 27.6 µM
- TGI (U251 CNS): 26.2 µM
- TGI (UACC-257 melanoma): 14.5 µM
- TGI (UACC-62 melanoma): 10 µM
- TGI (UO-31 renal): 11.9 µM
- TGI (XF 498 CNS): 4.92 µM
